Drawing on ChEMBL document CHEMBL3232732, “A,D-seco-limonoids from the stems of Clausena emarginata” (J Nat Prod, 2014), this text covers IC50 and inhibition for 16 compounds.

Activity calls are given as the source filed them. The calls are words filed in the database; no cut-off is given here.

Type in all cases: functional, cell-based
One assay concerns HCT-116. Kind of assay: Cytotoxicity against human HCT116 cells after 96 hrs by MTT assay. The settings on record: HCT-116, 96 h.
Another assay has as its system BV-2. Kind of assay: Inhibition of LPS-induced NO production in mouse BV2 cells compound pre-treated for 1 hr before LPS addition measured after 24 hrs by Griess assay. (Nitrite, measured by Griess reagent, commonly stands in for NO production.)
Assay [1] can be described thus: Cytotoxicity against human BGC823 cells after 96 hrs by MTT assay. Conditions: BGC-823, 96 h.
For a further assay, the system named is SK-OV-3. Kind of assay: Cytotoxicity against human SKOV3 cells after 96 hrs by MTT assay. Conditions: SK-OV-3, 96 h.
The test system of another assay is HepG2. Kind of assay: Cytotoxicity against human HepG2 cells after 96 hrs by MTT assay. The settings on record: HepG2, 96 h.
For a further assay, the system named is NCI-H1650. Kind of assay: Cytotoxicity against human NCI-H1650 cells after 96 hrs by MTT assay. The settings on record: NCI-H1650, 96 h. On the technique in general: Tetrazolium assays rely on reduction of a dye to a coloured formazan, in cell work by metabolically active cells.

For orientation: IC50 means the midpoint of a concentration-inhibition curve. With `CC(=O)O[C@H]1CC(=O)OC(C)(C)[C@@H]2CC(=O)[C@]3(C)[C@H]([C@@H](O)C[C@@]4(C)[C@H](C5=CC(=O)OC5O)OC(=O)[C@H]5O[C@]543)[C@@]12C` (relative stereo), the IC50 (in the assay with HCT-116; in assay [1]; in the assay on SK-OV-3; in the assay with HepG2; in the assay on NCI-H1650) was over 10 µM in each case. Moreover, the inhibition entry in the assay with BV-2 was “inactive”.
Turning to `CCOC(=O)C[C@H](OC(C)=O)[C@]1(C)[C@H]2[C@@H](O)C[C@@]3(C)[C@H](c4ccoc4)OC(=O)[C@H]4O[C@]43[C@]2(C)C(=O)C[C@H]1C(C)(C)O`, the IC50 was over 10 µM with HCT-116; 5.1 µM in the assay on BV-2; over 10 µM in assay [1]; over 10 µM in the assay on SK-OV-3; over 10 µM in the assay on HepG2; over 10 µM in the assay with NCI-H1650.
As to `CC1(C)OC(=O)C=C[C@]2(C)[C@H]3[C@@H](O)C[C@@]4(C)[C@@H](C5=CC(=O)OC5O)OC(=O)[C@H]5O[C@]54[C@]3(C)C(=O)C[C@@H]12` (stereo partly specified), the IC50 (in the assay with HCT-116; in assay [1]; in the assay with SK-OV-3; in the assay with HepG2; in the assay on NCI-H1650) was over 10 µM each time. The inhibition result in the assay with BV-2 is “inactive”.
Consider `CC(=O)O[C@@H](CC(=O)O)[C@]1(C)[C@H]2[C@@H](O)C[C@@]3(C)[C@H](C4=CC(O)OC4=O)OC(=O)[C@H]4O[C@]43[C@]2(C)C(=O)C[C@H]1C(C)(C)O` (relative stereo), for which the IC50 (in the assay on HCT-116; in assay [1]; in the assay with SK-OV-3; in the assay on HepG2; in the assay with NCI-H1650) was over 10 µM in each case. Also, in the assay on BV-2, the inhibition entry was “inactive”.
As to `CC1(C)OC(=O)C=C[C@]2(C)[C@H]3[C@@H](O)C[C@@]4(C)[C@H](c5ccoc5)OC(=O)[C@H]5O[C@]54[C@]3(C)C(=O)C[C@@H]12`, the IC50 in the assay with HCT-116 was over 10 µM; with BV-2, 5.3 µM; in assay [1] it was over 10 µM; with SK-OV-3, over 10 µM; in the assay on HepG2, over 10 µM; in the assay with NCI-H1650, over 10 µM.
Turning to `CC(C)(O)[C@@H]1CC(=O)[C@]2(C)[C@@H]3[C@H](C[C@@]4(C)[C@H](c5ccoc5)OC(=O)[C@H]5O[C@]542)OC(=O)C=C[C@]31C`, the IC50 (with HCT-116; in assay [1]; in the assay with SK-OV-3; with HepG2; in the assay with NCI-H1650) was over 10 µM throughout. Besides, in the assay on BV-2, the inhibition entry is “inactive”.
On to `COC(=O)C[C@H]1OC(C)(C)[C@@H]2CC(=O)[C@]3(C)[C@H]([C@@H](O)C[C@@]4(C)[C@H](C5=CC(O)OC5=O)OC(=O)[C@H]5O[C@]543)[C@@]12C` (relative stereo), for which the IC50 (in the assay on HCT-116; in assay [1]; in the assay on SK-OV-3; in the assay on HepG2; with NCI-H1650) was over 10 µM each time. In the assay with BV-2, the inhibition entry is “inactive”.
With `COC(=O)C[C@@H]1OC(C)(C)[C@@H]2CC(=O)[C@]3(C)[C@H]([C@@H](O)C[C@@]4(C)[C@H](c5ccoc5)OC(=O)[C@H]5O[C@]543)[C@@]12C`, the IC50 in the assay with HCT-116 was over 10 µM; in the assay with BV-2 it was 6.7 µM; in assay [1] it was over 10 µM; in the assay on SK-OV-3 it was over 10 µM; in the assay with HepG2, over 10 µM; in the assay on NCI-H1650, over 10 µM.
`COc1cc(/C=C/C(=O)CC(=O)/C=C/c2ccc(O)c(OC)c2)ccc1O` [CURCUMIN]: the IC50 in the assay on BV-2 came to 0.5 µM.
`CC(=O)O[C@H]1CC(=O)OC(C)(C)[C@@H]2CC(=O)[C@]3(C)[C@H]([C@@H](O)C[C@@]4(C)[C@H](c5ccoc5)OC(=O)[C@H]5O[C@]543)[C@@]12C`: the IC50 (in the assay on HCT-116; in assay [1]; in the assay on SK-OV-3; in the assay with HepG2; in the assay with NCI-H1650) was over 10 µM each time. Further, the inhibition entry in the assay on BV-2 was “inactive”.
`COC(=O)C[C@H]1OC(C)(C)[C@@H]2CC(=O)[C@]3(C)[C@H]([C@@H](O)C[C@@]4(C)[C@H](c5ccoc5)OC(=O)[C@H]5O[C@]543)[C@@]12C`: the IC50 in the assay on HCT-116 was over 10 µM; in the assay with BV-2 it was 10 µM; in assay [1] it was over 10 µM; in the assay with SK-OV-3, over 10 µM; with HepG2, over 10 µM; in the assay with NCI-H1650, over 10 µM.
For `CC(=O)O[C@H]1CC(=O)OC(C)(C)[C@@H]2CC(=O)[C@]3(C)[C@H]([C@@H](O)C[C@@]4(C)[C@H](C5=CC(O)OC5=O)OC(=O)[C@H]5O[C@]543)[C@@]12C` (stereo partly specified), the IC50 (in the assay with HCT-116; in assay [1]; with SK-OV-3; in the assay with HepG2; with NCI-H1650) was over 10 µM throughout. In the assay with BV-2, the inhibition entry is “inactive”.
As for `COC(=O)C[C@H]1OC(C)(C)[C@@H]2CC(=O)[C@]3(C)[C@H]([C@@H](O)C[C@@]4(C)[C@H](C5=CC(=O)OC5O)OC(=O)[C@H]5O[C@]543)[C@@]12C` (stereo partly specified), the IC50 (with HCT-116; in assay [1]; with SK-OV-3; in the assay with HepG2; in the assay on NCI-H1650) was over 10 µM throughout. In addition, the inhibition entry in the assay on BV-2 was “inactive”.
`COC(=O)C[C@H](O)[C@]1(C)[C@H]2[C@@H](O)C[C@@]3(C)[C@H](c4ccoc4)OC(=O)[C@H]4O[C@]43[C@]2(C)C(=O)C[C@H]1C(C)(C)O`: the IC50 was over 10 µM with HCT-116; 7 µM in the assay on BV-2; over 10 µM in assay [1]; over 10 µM in the assay with SK-OV-3; over 10 µM in the assay on HepG2; over 10 µM with NCI-H1650.
On to `CC1(C)OC(=O)C=C[C@]2(C)[C@H]3[C@@H](O)C[C@@]4(C)[C@H](C5=CC(O)OC5=O)OC(=O)[C@H]5O[C@]54[C@]3(C)C(=O)C[C@@H]12` (stereo partly specified), for which the IC50 (in the assay on HCT-116; in assay [1]; in the assay on SK-OV-3; in the assay with HepG2; in the assay on NCI-H1650) was over 10 µM in each case. Further, the inhibition entry with BV-2 is “inactive”.
As to `COC(=O)C[C@H](OC(C)=O)[C@]1(C)[C@H]2[C@@H](O)C[C@@]3(C)[C@H](c4ccoc4)OC(=O)[C@H]4O[C@]43[C@]2(C)C(=O)C[C@H]1C(C)(C)O`, the IC50 is over 10 µM in the assay on HCT-116; 8.8 µM in the assay with BV-2; over 10 µM in assay [1]; over 10 µM in the assay on SK-OV-3; over 10 µM in the assay with HepG2; over 10 µM in the assay with NCI-H1650.
